# How the values were obtained:
# Aβ25-35 = Aβ25-35 (Homo sapiens, UniProt P05067); test: CPBBA, Aβ25-35; type: binding
# Experimental: At the end of the incubation time, samples were separated by 1.5% agarose (Type I-B) gel electrophoresis and transferred to nitrocellulose membrane (Schleicher & Schuell, Keene, N.H.) in 10×SSC buffer. The membrane was exposed to tritium-sensitive screen and analyzed by phosphoimaging using the Cyclone Storage phosphor system (Packard BioScience, Meridien, Conn.). Image-densitometric analysis was performed using the OptiQuant software (Packard). […] Low molecular weight unincorporated 22i-hydroxycholesterol is separated and eliminated during electrophoresis.
# [1] = test system: PC12 cells (rat pheochromocytoma neurons); test: MTT cytotoxicity assay, Aβ-induced neurotoxicity in PC12 cells (Example II); type: cell-based; conditions: MTT; compounds at 30 and 50 μM; 72 hours
# Experimental: PC12 cells (rat pheochromocytoma neurons) from ATCC (Manassas, Va.) were cultured at 37° C. and 5% CO2 in RPMI 1640 medium devoid of glutamine and supplemented with 10% fetal bovine serum and 5% horse serum. Yao Z, Drieu K and Papadopoulos V., The Gingko biloba extract EGb 761 rescues PC12 neuronal cells from β-amyloid-induced cell death by inhibiting the formation of (3-amyloid-derived diffusible neurotoxic ligands, Brain Res, 889, 181-190 (2001). Cells were seeded in 96-well plates (8×10^4 cells/well). After an overnight period of incubation, increasing concentrations of aggregated Aβ (0.1, 1 and 10 μM) were added to the cells in the presence or absence of the indicated concentrations of the SP compounds to be tested. After 72-hours incubation time various parameters, markers of cell viability, were determined. Mouse MA-10 tumor Leydig cells were maintained at 37° C. in DMEM/Ham's F12 (Biofluids, Rockville, Md.) medium supplemented with 5% heat-inactivated fetal calf serum and 2.5% horse serum in 5% CO2. Cells were plated on 96-well plates at the density of 2.5×10^4 cells/well for overnight. The cells were stimulated with the indicated concentrations of the various SP compounds in 0.2 ml/well serum-free medium for 2 hours. The culture medium was collected and tested for progesterone production by radioimmunoassay.
# The cellular toxicity of Aβ was assessed using the 3-(4,5-dimethylthiazol-2-yl)-2,5-diphenyl tetrazolium bromide (MTT) assay (Trevigen, Gaithersburg, Md.). Briefly, 10 μl of the MTT solution were added to the cells cultured in 100 μl medium. After an incubation period of 4 hours, 100 μl of detergent were added and cells were incubated overnight at 37° C. Formazan blue formation was quantified at 600 nm and 690 nm using the Victor quantitative detection spectrophotometer (EGG-Wallac, Gaithersburg, Md.) and the results expressed as (DO600-DO690). […] Liu Y and Schubert D, Steroid hormones block amyloid fibril-induced 3-(4,5-dimethylthiazol-2-yl)-2,5-diphenyltetrazolium bromide (MTT) formazan exocytosis: relationship to neurotoxicity, J. Neurochem., 19, 1639-1662 (1998). For that reason, additional cytotoxicity and cell viability assays were used.
# Yao et al., J. Neurochem., 83, 1110-1119 (2002); and Yao et al., The Gingko biloba extract EGb 761 rescues PC12 neuronal cells from β-amyloid-induced cell death by inhibiting the formation of β-amyloid-derived diffusible neurotoxic ligands, Brain Res., 889, 181-190 (2001). To stay close to the concentrations of Aβ present in AD brain, 0.1-10 μM concentrations of Aβ were used. The compounds tested for their neuroprotective properties were examined at 30 and 50 μM concentrations (FIGS. 9-15).
# [2] = test system: PC12 cells, MDA-MB-231 cells or the human glioma cell line U87; test: Differentiation in other cell lines; type: cell-based; conditions: data not shown
# [3] = test system: differentiated NT2N neuronal cells; test: MTT assay, viability of differentiated NT2N neuronal cells; type: cell-based, human
# Description: During CNS development in vivo, cells actively participate in two opposing processes: proliferation and death (Ross, Trends Neurosci., 19, 62 (1996)). In NT2 cells, early programmed cell death (apoptosis) has been associated with the induction of differentiation by RA, it occurs mainly in undifferentiated cells, and it coincides with first detection of the neuronal phenotye (NT2N), i.e., significant apoptotic cell death could be quantified during the third and fourth days of the RA treatment using annexin V labeling as a marker of apoptosis (Guillemain et al., J. Neurosci. Res., 71, 38 (2003)). […] Thus, apoptotic cell death of undifferentiated NT2 cells also occurred during 22R-hydroxycholesterol-induced differentiation.
# NT2 cells = test: Expression of neurofilament proteins NF70, NF145, NF200 by NT2 cells (immunoblot); type: cell-based, human; conditions: 6 days
# Experimental: Cells were fixed with newly prepared 3.7% formaldehyde for 15 minutes and blocked by blocking reagent (Zymed Laboratories, San Francisco, Calif., USA). Inuunostaining was performed using rabbit anti-NF200, anti-NF145 and anti-NF70 (all at 1:200), and goat anti-GFRα1, anti-GFRα2 and anti-GFRα3 (all at 1:100); Santa Cruz Biotechnology (Santa Cruz, Calif., USA). All antibodies were used at 200 μg/ml. After overnight incubation at 4° C., the immunoreactivity was detected using horseradish peroxidase-conjugated anti-rabbit or anti-mouse IgG for 1 hour at room temperature and visualized using AEC.
# Cells were then washed with phosphate-buffered saline (PBS) and lysed with loading buffer. Proteins were resolved by sodium dodecyl sulfate polyacrylamide gel electrophoresis (SDS-PAGE) on 4-20% gradient acrylamide-bis-acrylamide gel at 125 V for 2 hours and electrotransferred onto nitrocellulose membranes. After blocking with 5% nonfat milk, the membranes were subjected to immunoblot analysis by incubation overnight with rabbit anti-NF200, anti-NF145 and anti-NF70 (all at 1:4000) (Chemicon International, Temecula, Calif., USA) and goat anti-GFRα1, anti-GFRα2 and anti-GFRα3 (all at 1:500) (200 μg/ml; Santa Cruz Biotechnology, Inc., Santa Cruz, Calif., USA), goat anti-rabbit or rabbit anti-goat IgG-horseradish peroxidase being used as the secondary antibody (1:5000) (Zymed Laboratories, San Francisco, Calif., USA). Protein bands were visualized using ECL reagents (Amersham Pharmacia Biotech, Piscataway, N.J., USA). Image-densitometric analyses of the immunoreactive protein bands were performed using OptiQuant-image analysis software (Packard BioScience, Meriden, Conn., USA). Glyceraldehyde-3-phosphate dehydrogenase (GAPPH) served as an internal standard.
compound,measurement,setting,value
"CC(C)CC[C@@H](O)[C@@H](C)[C@H]1CC[C@H]2[C@@H]3CC=C4C[C@@H](O)CC[C@]4(C)[C@H]3CC[C@]12C [SP222, 22R-hydroxycholesterol]",binding to Aβ25-35,Aβ25-35,did not bind
same,neuroprotection against 0.1 μM Aβ-induced neurotoxicity,[1],protects
same,neuroprotection against 1 μM Aβ-induced neurotoxicity,[1],protects
same,neuroprotection against 10 μM Aβ-induced neurotoxicity,[1],limited neuroprotection
same,"induction of differentiation in PC12, MDA-MB-231 or U87 cells",[2],such an effect was not found
same,effect on viability of differentiated NT2N neuronal cells,[3],had no effect
same,NF70 protein level,NT2 cells; 1 μM,83 % of the control level
same,NF145 expression,NT2 cells; 5 μM,increase that was apparent at 5 μM
same,NF200 protein expression,NT2 cells; 5 μM,210 % of the control value
same,NF145 expression,NT2 cells; 25 μM,56 % of control levels
same,NF200 protein expression,NT2 cells; 25 μM,180 % of the control value
same,NF70 protein level,NT2 cells; 50 μM,18 % of the control level

# — patent US20060009433A1, “Neuroprotective spirostenol pharmaceutical compositions” (priority 2003, published 2006)
